Measurements: ChEMBL document CHEMBL4622963, “Optimization of Nicotinamides as Potent and Selective IRAK4 Inhibitors with Efficacy in a Murine Model of Psoriasis” (ACS Med Chem Lett, 2020)

Tests used:
[1] = molecular target: T1, Tyrosine-protein kinase receptor TYRO3 (Homo sapiens, UniProt Q06418); experiment: Inhibition of human wild type partial length TYRO3 (497 to 814 residues) expressed in bacterial expression system
T1 sequence (Q06418 whole entry): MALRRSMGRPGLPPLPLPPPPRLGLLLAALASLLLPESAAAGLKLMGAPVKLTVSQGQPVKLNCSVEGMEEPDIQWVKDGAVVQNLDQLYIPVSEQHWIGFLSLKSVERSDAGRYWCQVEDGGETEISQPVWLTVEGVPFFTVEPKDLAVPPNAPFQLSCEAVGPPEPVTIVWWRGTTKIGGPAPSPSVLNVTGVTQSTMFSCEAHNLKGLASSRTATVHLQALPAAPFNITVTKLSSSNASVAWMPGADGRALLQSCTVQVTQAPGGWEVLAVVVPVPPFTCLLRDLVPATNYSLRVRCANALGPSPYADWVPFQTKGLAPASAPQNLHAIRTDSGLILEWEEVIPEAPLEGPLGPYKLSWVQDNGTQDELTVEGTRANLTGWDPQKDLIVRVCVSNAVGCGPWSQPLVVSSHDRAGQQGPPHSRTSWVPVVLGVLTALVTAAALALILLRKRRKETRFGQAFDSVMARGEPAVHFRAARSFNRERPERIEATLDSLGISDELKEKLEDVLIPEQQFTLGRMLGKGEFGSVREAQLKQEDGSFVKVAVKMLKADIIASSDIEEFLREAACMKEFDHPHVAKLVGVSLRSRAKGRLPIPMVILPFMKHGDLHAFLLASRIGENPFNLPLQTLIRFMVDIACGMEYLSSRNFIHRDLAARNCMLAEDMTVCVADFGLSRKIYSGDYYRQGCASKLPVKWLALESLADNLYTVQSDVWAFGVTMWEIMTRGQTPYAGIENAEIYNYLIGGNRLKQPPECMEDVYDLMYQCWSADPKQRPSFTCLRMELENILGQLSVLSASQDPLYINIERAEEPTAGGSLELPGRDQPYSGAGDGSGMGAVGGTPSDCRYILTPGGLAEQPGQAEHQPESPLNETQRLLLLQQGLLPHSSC

[2] = molecular target: T2, Interleukin-1 receptor-associated kinase 4 (Mus musculus) (UniProt Q8R4K2); experiment: In vivo Inhibition of IRAK4 in LTA-treated BALB/c mouse assessed as suppression of IL-6 level in serum at 0.3 mg/kg by ELISA relative to control; type: functional, organism-based
T2 sequence (whole entry): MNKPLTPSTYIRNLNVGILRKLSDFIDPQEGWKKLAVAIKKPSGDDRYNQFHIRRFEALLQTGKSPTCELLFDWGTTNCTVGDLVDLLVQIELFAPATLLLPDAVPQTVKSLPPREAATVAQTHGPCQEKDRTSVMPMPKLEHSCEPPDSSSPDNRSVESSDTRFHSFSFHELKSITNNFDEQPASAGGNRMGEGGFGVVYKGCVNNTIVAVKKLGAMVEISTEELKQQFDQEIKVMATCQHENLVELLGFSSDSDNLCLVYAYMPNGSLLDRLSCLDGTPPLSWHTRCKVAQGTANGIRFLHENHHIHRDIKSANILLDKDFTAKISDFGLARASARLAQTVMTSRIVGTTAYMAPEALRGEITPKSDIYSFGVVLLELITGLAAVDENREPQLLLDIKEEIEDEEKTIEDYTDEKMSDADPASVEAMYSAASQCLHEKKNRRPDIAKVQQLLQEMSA

[3] = Drug uptake in imiquimod-induced C57BL/6 mouse model of psoriasis at 3 mg/kg, po dosed via gavage twice daily and measured after 8 hrs by LC-MS analysis; type: ADME, organism-based; conditions: in vivo, read-out: Drug uptake
[4] = Half life in mouse at 2 mg/kg, iv administered as infusion or 5 mg/kg, po via gavage measured up to 24 hrs by LC-MS analysis; type: ADME, organism-based; conditions: in vivo
[5] = Drug uptake in imiquimod-induced C57BL/6 mouse model of psoriasis at 0.3 mg/kg, po dosed via gavage twice daily and measured after 2 hrs by LC-MS analysis; type: ADME, organism-based; conditions: in vivo, read-out: Drug uptake
[6] = Stability in human liver microsomes assessed as parent compound remaining; type: ADME, Microsome
[7] = Drug uptake in imiquimod-induced C57BL/6 mouse model of psoriasis at 3 mg/kg, po dosed via gavage twice daily and measured after 2 hrs by LC-MS analysis; type: ADME, organism-based; conditions: in vivo, read-out: Drug uptake
[8] = molecular target: Mast/stem cell growth factor receptor Kit (Homo sapiens, UniProt P10721); experiment: Inhibition of recombinant N-terminal GST-tagged human cKit (544 to end residues) expressed in baculovirus infected Sf21 cells
Mast/stem cell growth factor receptor Kit, sequence (P10721 whole entry): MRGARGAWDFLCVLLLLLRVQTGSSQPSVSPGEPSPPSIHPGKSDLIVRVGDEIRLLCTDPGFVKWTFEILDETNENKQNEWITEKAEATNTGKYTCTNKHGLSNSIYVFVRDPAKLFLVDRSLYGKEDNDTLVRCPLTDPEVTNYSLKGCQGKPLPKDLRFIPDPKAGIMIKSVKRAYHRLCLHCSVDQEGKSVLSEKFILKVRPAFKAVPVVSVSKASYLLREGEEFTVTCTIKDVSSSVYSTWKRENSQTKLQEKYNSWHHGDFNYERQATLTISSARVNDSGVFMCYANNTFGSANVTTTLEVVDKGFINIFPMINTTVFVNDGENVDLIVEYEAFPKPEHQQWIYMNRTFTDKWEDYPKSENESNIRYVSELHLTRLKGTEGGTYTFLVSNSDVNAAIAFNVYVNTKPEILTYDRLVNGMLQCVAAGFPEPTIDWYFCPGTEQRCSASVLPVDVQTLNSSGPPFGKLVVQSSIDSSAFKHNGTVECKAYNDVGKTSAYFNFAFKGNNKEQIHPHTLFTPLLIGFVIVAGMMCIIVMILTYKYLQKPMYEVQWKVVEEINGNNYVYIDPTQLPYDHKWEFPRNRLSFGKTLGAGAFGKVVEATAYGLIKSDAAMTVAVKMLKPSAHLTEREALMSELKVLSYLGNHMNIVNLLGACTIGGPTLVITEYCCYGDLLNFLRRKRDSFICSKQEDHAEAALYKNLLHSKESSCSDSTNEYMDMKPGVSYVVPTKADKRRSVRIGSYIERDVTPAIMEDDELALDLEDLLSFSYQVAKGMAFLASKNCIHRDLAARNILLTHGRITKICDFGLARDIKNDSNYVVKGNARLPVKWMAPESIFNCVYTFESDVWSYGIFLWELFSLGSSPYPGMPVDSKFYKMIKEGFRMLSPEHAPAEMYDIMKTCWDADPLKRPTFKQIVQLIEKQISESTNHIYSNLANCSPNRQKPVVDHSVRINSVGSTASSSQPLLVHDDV

[9] = organism: Homo sapiens; experiment: Selectivity index, ratio of IC50 for N-terminal His6-tagged human full length recombinant LCK expressed in baculovirus infected Sf21 cells to IC50 for IRAK4 (unknown origin)
[10] = Toxicity in po dosed imiquimod-induced C57BL/6 mouse model of psoriasis assessed as drug tolerability; type: organism-based; conditions: in vivo
[11] = molecular target: T2, Interleukin-1 receptor-associated kinase 4 (Mus musculus); experiment: In vivo Inhibition of IRAK4 in LTA-treated BALB/c mouse assessed as suppression of IL-6 level in serum at 10 mg/kg by ELISA relative to control; type: functional, organism-based
[12] = Drug uptake in imiquimod-induced C57BL/6 mouse model of psoriasis at 1 mg/kg, po dosed via gavage twice daily and measured after 8 hrs by LC-MS analysis; type: ADME, organism-based; conditions: in vivo, read-out: Drug uptake
[13] = molecular target: T3, Interleukin-1 receptor-associated kinase 4 (Homo sapiens, UniProt Q9NWZ3); experiment: Inhibition of IRAK4 in human whole blood assessed as inhibition of LTA-induced IL-6 production preincubated for 30 mins followed by LTA-stimulation and measured after 5 hrs by ELISA; type: tissue-based
T3 sequence (Q9NWZ3 whole entry): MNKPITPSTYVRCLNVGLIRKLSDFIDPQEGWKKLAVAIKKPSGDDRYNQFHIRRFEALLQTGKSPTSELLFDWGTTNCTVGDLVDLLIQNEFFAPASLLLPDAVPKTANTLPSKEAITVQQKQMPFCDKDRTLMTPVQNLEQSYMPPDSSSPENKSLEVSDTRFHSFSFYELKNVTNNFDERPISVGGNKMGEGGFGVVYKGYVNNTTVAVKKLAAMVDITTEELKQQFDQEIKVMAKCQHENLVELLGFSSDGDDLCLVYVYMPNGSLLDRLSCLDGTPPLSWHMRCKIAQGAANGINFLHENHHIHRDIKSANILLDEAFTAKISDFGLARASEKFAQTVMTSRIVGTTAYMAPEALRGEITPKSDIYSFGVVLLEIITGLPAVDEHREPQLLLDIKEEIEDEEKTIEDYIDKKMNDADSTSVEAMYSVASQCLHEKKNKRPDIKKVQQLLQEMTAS

[14] = molecular target: TRAF2 and NCK-interacting protein kinase (Homo sapiens, UniProt Q9UKE5); experiment: Inhibition of human wild type partial length TNIK (D4-K311 residues) expressed in bacterial expression system
TRAF2 and NCK-interacting protein kinase, sequence (Q9UKE5 whole entry, the tested form may be a part): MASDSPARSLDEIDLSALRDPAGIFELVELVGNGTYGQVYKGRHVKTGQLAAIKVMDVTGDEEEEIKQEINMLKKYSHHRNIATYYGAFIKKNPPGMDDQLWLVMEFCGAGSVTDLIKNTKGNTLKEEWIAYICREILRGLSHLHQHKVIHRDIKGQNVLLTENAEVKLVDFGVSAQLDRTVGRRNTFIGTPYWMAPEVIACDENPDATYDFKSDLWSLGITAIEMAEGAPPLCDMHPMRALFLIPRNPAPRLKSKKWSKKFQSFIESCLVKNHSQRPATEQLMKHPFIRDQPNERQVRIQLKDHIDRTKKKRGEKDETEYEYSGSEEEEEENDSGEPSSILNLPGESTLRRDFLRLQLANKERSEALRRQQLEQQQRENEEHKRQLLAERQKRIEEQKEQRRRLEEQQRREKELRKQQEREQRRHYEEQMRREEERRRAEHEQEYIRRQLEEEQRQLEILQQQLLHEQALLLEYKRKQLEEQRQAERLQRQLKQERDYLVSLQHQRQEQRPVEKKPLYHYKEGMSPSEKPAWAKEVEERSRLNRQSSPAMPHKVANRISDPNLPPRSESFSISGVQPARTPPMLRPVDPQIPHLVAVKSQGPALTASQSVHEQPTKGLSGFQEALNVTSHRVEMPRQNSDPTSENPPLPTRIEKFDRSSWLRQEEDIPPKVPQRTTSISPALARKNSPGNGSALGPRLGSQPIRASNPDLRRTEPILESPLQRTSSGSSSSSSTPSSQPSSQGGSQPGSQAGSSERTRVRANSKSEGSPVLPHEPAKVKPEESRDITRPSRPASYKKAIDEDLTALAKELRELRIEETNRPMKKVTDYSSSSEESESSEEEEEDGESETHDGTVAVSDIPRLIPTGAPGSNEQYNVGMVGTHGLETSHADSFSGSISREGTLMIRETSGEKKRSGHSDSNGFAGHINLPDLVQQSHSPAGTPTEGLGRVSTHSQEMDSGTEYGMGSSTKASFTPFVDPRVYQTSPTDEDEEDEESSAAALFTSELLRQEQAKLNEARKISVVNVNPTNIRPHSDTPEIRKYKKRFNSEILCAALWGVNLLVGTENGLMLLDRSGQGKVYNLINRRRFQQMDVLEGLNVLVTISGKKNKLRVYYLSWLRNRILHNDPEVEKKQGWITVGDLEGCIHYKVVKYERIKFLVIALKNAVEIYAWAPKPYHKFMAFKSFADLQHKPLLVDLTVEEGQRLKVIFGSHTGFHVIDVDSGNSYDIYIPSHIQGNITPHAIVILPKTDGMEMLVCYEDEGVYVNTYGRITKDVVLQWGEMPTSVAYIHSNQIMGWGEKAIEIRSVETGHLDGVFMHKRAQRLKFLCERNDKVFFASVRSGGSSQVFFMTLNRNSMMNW

[15] = organism: Mus musculus; experiment: animal or person; conditions: C57BL/6, po, 144 h, read-out: INH
[16] = AUC in mouse at 5 mg/kg, po via gavage measured up to 24 hrs by LC-MS analysis; type: ADME, organism-based; design: time < 24 hr, dose 5 mg/kg, route oral; conditions: in vivo

SMILES: CC(C)Nc1cc(Nc2nc3ccnn3cc2F)ncc1C(=O)NC[C@@H](F)C(C)(C)O
- IC50 [1]: 980 nM
- inhibition [2]: 72%
- concentration at 8 h [3]: 31 nM
- half-life [4]: 1.4 h
- concentration at 2 h [5]: 42 nM
- Stability [6]: 93%
- concentration at 2 h [7]: 1950 nM
- IC50 [8]: > 2000 nM
- Ratio IC50 [9]: > 590
- Activity [10]: Non-Toxic
- inhibition [11]: 93%
- concentration at 8 h [12]: 12 nM
- IC50 [13]: 920 nM
- IC50 [14]: 130 nM
- inhibition in vivo at 1 mg/kg [15]: 17%
- AUC at 24 h [16]: 2.4 µM·h
